Several values for one entry are separate records, joined by “and”; a condition that tells them apart may be missing. Equal values may be shown once. Records with an inconclusive call do not appear.
Test system: BDF1 mice, s.c. Lewis lung carcinoma, T/C %
Assay: NCI In Vivo Anticancer Drug Screen. Data for tumor model Lewis Lung Carcinoma (subcutaneous) in B6D2F1 (BDF1) mice
Outline: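 Tumor-bearing mice were treated with test compound, and either survival or tumor size was recorded. Values are the treated-group measurement divided by that of the vehicle-treated control group.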

[1] = endpoint: mean tumor weight, dose: 25.0 mg/kg/injection, schedule: Q01DX011 (ip), vehicle: carboxymethylcellulose (CMC), higher = larger tumour
[2] = endpoint: mean tumor weight, dose: 50.0 mg/kg/injection, schedule: Q01DX011 (ip), vehicle: carboxymethylcellulose (CMC), higher = larger tumour

`NCCCNCCSP(=O)(O)O` was tested, and the T/C (endpoint: median survival time, dose: 300.0 mg/kg/injection, schedule: Q01DX001 (ip), vehicle: saline, higher = longer survival) was 93 % of control and 100 % of control and the T/C (endpoint: median survival time, dose: 500.0 mg/kg/injection, schedule: Q01DX001 (ip), vehicle: saline, higher = longer survival) was 77 % of control and 78 % of control.
For `CC1C[N-]CC(C)C1.CC1C[N-]CC(C)C1.CC1C[N-]CC(C)C1.CC1C[N-]CC(C)C1.[Cl][Rh][Cl]` (stereo unspecified), the T/C (endpoint: median survival time, dose: 1.5 mg/kg/injection, schedule: Q01DX009 (ip), vehicle: saline, higher = longer survival) was 104 % of control, the T/C (endpoint: median survival time, dose: 3.0 mg/kg/injection, schedule: Q01DX009 (ip), vehicle: saline, higher = longer survival) was 114 % of control and the T/C (endpoint: median survival time, dose: 6.0 mg/kg/injection, schedule: Q01DX009 (ip), vehicle: saline, higher = longer survival) was 105 % of control.
In the case of `COC(=O)c1ccccc1NC(c1ccccn1)c1ccc2cccnc2c1O` (stereo unspecified), the T/C (endpoint: mean tumor weight, dose: 10.0 mg/kg/injection, schedule: Q01DX011 (ip), vehicle: carboxymethylcellulose (CMC), higher = larger tumour) is reported as 55 % of control, the T/C [1] is reported as 111 % of control and the T/C (endpoint: mean tumor weight, dose: 37.0 mg/kg/injection, schedule: Q01DX011 (ip), vehicle: carboxymethylcellulose (CMC), higher = larger tumour) is reported as 115 % of control. The T/C [2] was 56 % of control, the T/C (endpoint: mean tumor weight, dose: 62.0 mg/kg/injection, schedule: Q01DX011 (ip), vehicle: carboxymethylcellulose (CMC), higher = larger tumour) was 30 % of control and the T/C (endpoint: mean tumor weight, dose: 70.0 mg/kg/injection, schedule: Q01DX011 (ip), vehicle: carboxymethylcellulose (CMC), higher = larger tumour) was 78 % of control. The T/C (endpoint: mean tumor weight, dose: 75.0 mg/kg/injection, schedule: Q01DX011 (ip), vehicle: carboxymethylcellulose (CMC), higher = larger tumour) was 86 % of control, the T/C (endpoint: mean tumor weight, dose: 125.0 mg/kg/injection, schedule: Q01DX011 (ip), vehicle: carboxymethylcellulose (CMC), higher = larger tumour) was 33 % of control and the T/C (endpoint: mean tumor weight, dose: 150.0 mg/kg/injection, schedule: Q01DX011 (ip), vehicle: carboxymethylcellulose (CMC), higher = larger tumour) was 80 % of control. For the same compound, the T/C (endpoint: mean tumor weight, dose: 250.0 mg/kg/injection, schedule: Q01DX011 (ip), vehicle: carboxymethylcellulose (CMC), higher = larger tumour) was 76 % of control, the T/C (endpoint: mean tumor weight, dose: 300.0 mg/kg/injection, schedule: Q01DX011 (ip), vehicle: carboxymethylcellulose (CMC), higher = larger tumour) was 62 % of control and the T/C (endpoint: mean tumor weight, dose: 500.0 mg/kg/injection, schedule: Q01DX011 (ip), vehicle: carboxymethylcellulose (CMC), higher = larger tumour) was 53 % of control.
With `O=C1C(=O)c2ccccc2C(O)=C1CC=C(Cl)Cl` the T/C (endpoint: mean tumor weight, dose: 12.5 mg/kg/injection, schedule: Q01DX011 (ip), vehicle: carboxymethylcellulose (CMC), higher = larger tumour) was 88 % of control, the T/C [1] was 76 % of control and the T/C [2] was 90 % of control. For the same compound, the T/C (endpoint: mean tumor weight, dose: 50.0 mg/kg/injection, schedule: Q01DX011 (oral), vehicle: carboxymethylcellulose (CMC), higher = larger tumour) was 84 % of control, the T/C (endpoint: median survival time, dose: 12.5 mg/kg/injection, schedule: Q01DX009 (ip), vehicle: Klucel (hydroxypropylcellulose) (HPC), higher = longer survival) was 89 % of control and 100 % of control and 106 % of control and the T/C (endpoint: median survival time, dose: 25.0 mg/kg/injection, schedule: Q01DX009 (ip), vehicle: Klucel (hydroxypropylcellulose) (HPC), higher = longer survival) was 86 % of control and 94 % of control and 110 % of control. For the same compound, the T/C (endpoint: median survival time, dose: 34.0 mg/kg/injection, schedule: Q01DX009 (ip), vehicle: water, higher = longer survival) was 113 % of control, the T/C (endpoint: median survival time, dose: 50.0 mg/kg/injection, schedule: Q01DX009 (ip), vehicle: Klucel (hydroxypropylcellulose) (HPC), higher = longer survival) was 103 % of control and 110 % of control and the T/C (endpoint: median survival time, dose: 50.0 mg/kg/injection, schedule: Q01DX009 (ip), vehicle: water, higher = longer survival) was 110 % of control. For the same compound, the T/C (endpoint: median survival time, dose: 100.0 mg/kg/injection, schedule: Q01DX009 (ip), vehicle: Klucel (hydroxypropylcellulose) (HPC), higher = longer survival) was 117 % of control, the T/C (endpoint: median tumor weight (est.), dose: 12.5 mg/kg/injection, schedule: Q01DX009 (ip), vehicle: Klucel (hydroxypropylcellulose) (HPC), higher = larger tumour) was 93 % of control and 99 % of control and the T/C (endpoint: median tumor weight (est.), dose: 25.0 mg/kg/injection, schedule: Q01DX009 (ip), vehicle: Klucel (hydroxypropylcellulose) (HPC), higher = larger tumour) was 78 % of control and 86 % of control. For the same compound, the T/C (endpoint: median tumor weight (est.), dose: 50.0 mg/kg/injection, schedule: Q01DX009 (ip), vehicle: Klucel (hydroxypropylcellulose) (HPC), higher = larger tumour) was 87 % of control and the T/C (endpoint: median tumor weight (est.), dose: 100.0 mg/kg/injection, schedule: Q01DX009 (ip), vehicle: Klucel (hydroxypropylcellulose) (HPC), higher = larger tumour) was 70 % of control.
With `CC(=O)OC(C)C1C2=C(C(=O)CC1(C)O)C(=O)c1c(ccc(-c3ccc4c(c3O)C(=O)C3=C(C4=O)C(C(C)OC(C)=O)C(C)(O)CC3=O)c1O)C2=O` (stereo unspecified) the T/C (endpoint: median survival time, dose: 0.1 mg/kg/injection, schedule: Q01DX009 (ip), vehicle: saline + alcohol, higher = longer survival) was 112 % of control, the T/C (endpoint: median survival time, dose: 0.38 mg/kg/injection, schedule: Q01DX009 (ip), vehicle: saline + alcohol, higher = longer survival) was 122 % of control and the T/C (endpoint: median survival time, dose: 0.75 mg/kg/injection, schedule: Q01DX009 (ip), vehicle: saline + alcohol, higher = longer survival) was 119 % of control. For the same compound, the T/C (endpoint: median survival time, dose: 1.5 mg/kg/injection, schedule: Q01DX009 (ip), vehicle: saline + alcohol, higher = longer survival) was 97 % of control and the T/C (endpoint: median survival time, dose: 1.56 mg/kg/injection, schedule: Q01DX009 (ip), vehicle: saline with Tween-80, higher = longer survival) was 101 % of control.
